Laboratory results published in patent US5075289A, “9-R-azacyclic erythromycin antibiotics” (priority 1988, dated 1991).
Values after ≈ are worked out from the molar mass of the structure shown. Like-named read-outs stand apart in the source and are kept apart here.

Legend:
Escherichia coli DC-2 = assay: In vitro antibacterial activity, agar dilution MIC; assay type: cell-based; conditions: DC2
Summary of the method: (§1)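 In agar dilution on Brain Heart Infusion agar, twelve successive compound dilutions were inoculated at 1:100 (1:10 for slow growers such as Streptococcus) by replicator and incubated 20–24 h at 35–37 °C. MIC is the lowest concentration giving no growth, slight haze or sparse colonies; erythromycin A was the class control.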

[1] = test system: Micrococcus luteus ATCC 4698; assay: In vitro antibacterial activity, agar dilution MIC; assay type: cell-based
Summary of the method: as §1

[2] = test system: Streptococcus pneumoniae (6303); assay: In-vivo mouse protection assay (acute mouse protection test); parameters: species or system Swiss albino mice; conditions: 168 h, S. pneumoniae 6303, dosed 1 and 5 hours post infection, 7 days, read-out: ED50
Description: (§2) The acute mouse protection test is conducted on ten mice with each of three levels of drug. Mouse mortality is used to calculate an ED50 value, i.e., the dose of drug required to protect 50% of the test animals against death due to the inoculum challenge.
(§3) The acute mouse protection test is conducted on female, Swiss albino mice, 18-20 grams in weight. […] To check the potency of the inoculum, a titration of the indicated test organism is carried out in control animals. The treatment group of animals is dosed with the test compound at 1 and 5 hours post infection and observed for 7 days. The ED50 values are calculated using the mortality data collected.

[3] = test system: Staphylococcus aureus (NCTC 10649); assay: as above; parameters: species or system Swiss albino mice; conditions: S. aureus NCTC 10649, dosed 1 and 5 hours post infection, 7 days, read-out: ED50
Description: as §2, §3

[4] = test system: Streptococcus pyogenes C-203; assay: as above; parameters: species or system Swiss albino mice
Description: as §2, §3

[5] = NCTC10649, sc, 168 h, Subcutaneous
[6] = C203, 168 h, Oral, S. pyogenes C-203, dosed 1 and 5 hours post infection, 7 days, read-out: ED50

CC[C@H]1OC(=O)[C@H](C)[C@@H](O[C@H]2C[C@@](C)(OC)[C@@H](O)[C@H](C)O2)[C@H](C)[C@@H](O[C@@H]2O[C@H](C)C[C@H](N(C)C)[C@H]2O)[C@](C)(O)C[C@@H](C)[C@@H](N2CCOCC2)[C@H](C)[C@@H](O)[C@]1(C)O [Example 19]
MIC (Escherichia coli DC-2): 50 µg/mL (≈ 62.1 µM)
MIC ([1]; ATCC4698, read-out: MIC): 0.2 µg/mL (≈ 0.248 µM)
ED50 ([2]; Oral): 9.7 mg/kg
ED50 ([2]; sc, Subcutaneous): 1.1 mg/kg
ED50 ([3]; NCTC10649, 168 h, Oral): 44.8 mg/kg
ED50 [3, 5]: 15.5 mg/kg
ED50 [4, 6]: 9.5 mg/kg
ED50 ([4]; C203, sc, 168 h): 2.1 mg/kg

CC[C@H]1OC(=O)[C@H](C)[C@@H](O[C@H]2C[C@@](C)(OC)[C@@H](O)[C@H](C)O2)[C@H](C)[C@@H](O[C@@H]2O[C@H](C)C[C@H](N(C)C)[C@H]2O)[C@](C)(O)C[C@@H](C)[C@@H](N2CCCCC2)[C@H](C)[C@@H](O)[C@]1(C)O [Example 5]
MIC (Escherichia coli DC-2): 50 µg/mL (≈ 62.3 µM)
MIC ([1]; ATCC4698, M. luteus ATCC 4698, Brain Heart Infusion agar, 20-24 hours, read-out: MIC): 0.2 µg/mL (≈ 0.249 µM)
ED50 ([2]; Oral): 4.5 mg/kg
ED50 ([2]; sc, Subcutaneous): 0.4 mg/kg
ED50 ([3]; NCTC10649, 168 h, Oral): 41.9 mg/kg
ED50 [3, 5]: 7.5 mg/kg
ED50 [4, 6]: < 7.5 mg/kg
ED50 ([4]; C203, sc, 168 h, Subcutaneous, S. pyogenes C-203, dosed 1 and 5 hours post infection, 7 days, read-out: ED50): < 0.6 mg/kg
